SMILES strings stand for the structures. Values after ≈ are worked out from the molar mass of the structure shown.

We go through 22 compounds from US10111428B2, “Nematocide containing lactonic ring and preparation method and application thereof” (priority 2015, dated 2018).

Data set [1] relates to Nematode eggs. The data set can be described thus: Plant pathogenic nematode inhibition test by dipping: nematode egg hatch inhibition (NY/T 1154.5-2006). It counts as in vivo. Here is the method: A plant pathogenic nematode inhibition test is conducted by dipping with the compounds in Table 1; and by referring to NY/T 1154.5-2006 (Part 5: Dipping Test for Insecticide Ovicidal Activity), the nematode egg hatch inhibition activity of the compounds is tested, as shown in Table 2: […]

The test system of data set [2] is Nematode J2. The data set can be described thus: Plant pathogenic nematode inhibition test by dipping: second-stage juveniles. It counts as in vivo.
Data set [3] relates to Earthworm. Put plainly: Earthworm toxicity test (Test Guidelines on Environmental Safety Assessment for Chemical Pesticides). The data set is classed as in vivo. The note with it: cell adds 'low toxicity'. On the procedure: (§1) According to the earthworm and edaphon toxicity test procedures as prescribed in the Test Guidelines on Environmental Safety Assessment for Chemical Pesticides, earthworm and edaphon toxicity tests are conducted on compounds 1 to 60 from Table 1. The simulative usual dose of pesticide in the edaphon test is 40 ppm.

Data set [4] relates to Edaphon. The data set can be described thus: Edaphon toxicity test (Test Guidelines on Environmental Safety Assessment for Chemical Pesticides). The settings on record: 15 d; 100 times of usual dose (simulative usual dose 40 ppm); cell adds 'low toxicity'. Here is the method:
as §1

[5] abbreviates: Test object: nematode eggs, dipping.
The mark [6] stands for this setting: Test object: nematode J2 (second-stage juveniles), dipping.

`O=C1CC(C(=O)OCCC=C(F)F)C(c2ccccc2)O1` (stereo not shown) [Compound 1]: the 50% lethal concentration (LC50) worked out at 11.81 µg/mL (≈ 39.9 µM) in data set [1] (in vivo) and 12.24 µg/mL (≈ 41.3 µM) in data set [2] (in vivo). Besides, in data set [3], the “Earthworm Toxicity LC50 (14 d)” value is recorded as >10, low toxicity mg/L. In addition, in data set [4], the “Edaphon Toxicity (15 d) (Inhibition ratio when added amount is 100 times of usual dose)” value was <50%, low toxicity.

`Cc1ccccc1C1OC(=O)CC1C(=O)OCCC=C(F)F` (stereo not shown) [Compound 2]: the LC50 in data set [1] (in vivo) was found to be 9.81 µg/mL (≈ 31.6 µM); in data set [2] (in vivo), 10.14 µg/mL (≈ 32.7 µM). Besides, in data set [3], the “Earthworm Toxicity LC50 (14 d)” value is listed as >10, low toxicity mg/L. Besides, the “Edaphon Toxicity (15 d) (Inhibition ratio when added amount is 100 times of usual dose)” value in data set [4] is given as <50%, low toxicity.

Consider `Cc1ccc(C2OC(=O)CC2C(=O)OCCC=C(F)F)cc1` (stereo not shown) [Compound 3], for which the LC50 in data set [1] (setting [5]) came out at 10.01 µg/mL (≈ 32.3 µM); in data set [2] (setting [6]), 10.23 µg/mL (≈ 33 µM). The “Earthworm Toxicity LC50 (14 d)” value in data set [3] is on record as >10, low toxicity mg/L. The “Edaphon Toxicity (15 d) (Inhibition ratio when added amount is 100 times of usual dose)” value in data set [4] is given as <50%, low toxicity.

Take `CCc1ccc(C2OC(=O)CC2C(=O)OCCC=C(F)F)cc1` (stereo not shown) [Compound 4]: the LC50 worked out at 10.25 µg/mL (≈ 31.6 µM) in data set [1] (in vivo) and 10.24 µg/mL (≈ 31.6 µM) in data set [2] (in vivo). The “Earthworm Toxicity LC50 (14 d)” value in data set [3] is on record as >10, low toxicity mg/L. In addition, the “Edaphon Toxicity (15 d) (Inhibition ratio when added amount is 100 times of usual dose)” value in data set [4] is reported as <50%, low toxicity.

As to `CCCc1ccc(C2OC(=O)CC2C(=O)OCCC(F)=C(F)F)cc1` (stereo not shown) [Compound 5], the LC50 in data set [1] (in vivo) came to 8.02 µg/mL (≈ 22.5 µM); in data set [2] (in vivo) it was 9.777 µg/mL (≈ 27.4 µM). Further, in data set [3], the “Earthworm Toxicity LC50 (14 d)” value is >10, low toxicity mg/L. Moreover, in data set [4], the “Edaphon Toxicity (15 d) (Inhibition ratio when added amount is 100 times of usual dose)” value is <50%, low toxicity.

As for `CCCCc1ccc(C2OC(=O)CC2C(=O)OCCC(F)=C(F)F)cc1` (stereo not shown) [Compound 6], the LC50 in data set [1] (in vivo) was determined as 11.81 µg/mL (≈ 31.9 µM); in data set [2] (in vivo), 13.45 µg/mL (≈ 36.3 µM). Further, the “Earthworm Toxicity LC50 (14 d)” value in data set [3] is listed as >10, low toxicity mg/L. Also, in data set [4], the “Edaphon Toxicity (15 d) (Inhibition ratio when added amount is 100 times of usual dose)” value was <50%, low toxicity.

In the case of `O=C1CC(C(=O)OCCC(F)=C(F)F)C(c2ccccc2Cl)O1` (stereo not shown) [Compound 7], the LC50 was 12.81 µg/mL (≈ 36.7 µM) in data set [1] (setting [5]) and 13.25 µg/mL (≈ 38 µM) in data set [2] (setting [6]). Further, the “Earthworm Toxicity LC50 (14 d)” value in data set [3] is given as >10, low toxicity mg/L. The “Edaphon Toxicity (15 d) (Inhibition ratio when added amount is 100 times of usual dose)” value in data set [4] is <50%, low toxicity.

`O=C1CC(C(=O)OCCC(F)=C(F)F)C(c2cccc(Cl)c2Cl)O1` (stereo not shown) [Compound 8]: the LC50 in data set [1] (in vivo) is 12.81 µg/mL (≈ 33.4 µM); in data set [2] (in vivo), 13.14 µg/mL (≈ 34.3 µM). Besides, in data set [3], the “Earthworm Toxicity LC50 (14 d)” value is >10, low toxicity mg/L. Besides, the “Edaphon Toxicity (15 d) (Inhibition ratio when added amount is 100 times of usual dose)” value in data set [4] is listed as <50%, low toxicity.

As to `O=C1CC(C(=O)OCCC(F)=C(F)F)C(c2ccc(Cl)cc2Cl)O1` (stereo not shown) [Compound 9], the LC50 was 10.36 µg/mL (≈ 27 µM) in data set [1] (in vivo) and 13.14 µg/mL (≈ 34.3 µM) in data set [2] (in vivo). Moreover, the “Earthworm Toxicity LC50 (14 d)” value in data set [3] was >10, low toxicity mg/L. The “Edaphon Toxicity (15 d) (Inhibition ratio when added amount is 100 times of usual dose)” value in data set [4] was <50%, low toxicity.

As to `O=C1CC(C(=O)OCCC(F)=C(F)F)C(c2cc(Cl)ccc2Cl)O1` (stereo not shown) [Compound 10], the LC50 in data set [1] (in vivo) amounted to 10.80 µg/mL (≈ 28.2 µM); in data set [2] (in vivo), 13.30 µg/mL (≈ 34.7 µM). In data set [3], the “Earthworm Toxicity LC50 (14 d)” value was >10, low toxicity mg/L. Besides, the “Edaphon Toxicity (15 d) (Inhibition ratio when added amount is 100 times of usual dose)” value in data set [4] is reported as <50%, low toxicity.

For `O=C1CC(C(=O)OCCC(F)=C(F)F)C(c2c(Cl)cccc2Cl)O1` (stereo not shown) [Compound 11], the LC50 was found to be 13.30 µg/mL (≈ 34.7 µM) in data set [1] (in vivo) and 14.95 µg/mL (≈ 39 µM) in data set [2] (in vivo). In addition, the “Earthworm Toxicity LC50 (14 d)” value in data set [3] was >10, low toxicity mg/L. Moreover, in data set [4], the “Edaphon Toxicity (15 d) (Inhibition ratio when added amount is 100 times of usual dose)” value is given as <50%, low toxicity.

For `O=C1CC(C(=O)OCCC(F)=C(F)F)C(c2cc(Cl)cc(Cl)c2Cl)O1` (stereo not shown) [Compound 12], the values for the LC50 in data set [1] (in vivo) and in data set [2] (in vivo) were 12.30 µg/mL (≈ 29.5 µM) and 13.35 µg/mL (≈ 32 µM), respectively. The “Earthworm Toxicity LC50 (14 d)” value in data set [3] was >10, low toxicity mg/L. Besides, in data set [4], the “Edaphon Toxicity (15 d) (Inhibition ratio when added amount is 100 times of usual dose)” value was <50%, low toxicity.

`O=C1CC(C(=O)OCCC(F)=C(F)F)C(c2cc(Cl)cc(Cl)c2)O1` (stereo not shown) [Compound 13]: the LC50 in data set [1] (in vivo) turned out to be 15.46 µg/mL (≈ 40.3 µM); in data set [2] (in vivo), 16.25 µg/mL (≈ 42.4 µM). Further, the “Earthworm Toxicity LC50 (14 d)” value in data set [3] is given as >10, low toxicity mg/L. The “Edaphon Toxicity (15 d) (Inhibition ratio when added amount is 100 times of usual dose)” value in data set [4] is listed as <50%, low toxicity.

With `O=C1CC(C(=O)OCCC(F)=C(F)F)C(c2cccc(Cl)c2)O1` (stereo not shown) [Compound 14], the LC50 in data set [1] (in vivo) was determined as 12.10 µg/mL (≈ 34.7 µM); in data set [2] (in vivo), 13.01 µg/mL (≈ 37.3 µM). In addition, the “Earthworm Toxicity LC50 (14 d)” value in data set [3] is >10, low toxicity mg/L. Moreover, the “Edaphon Toxicity (15 d) (Inhibition ratio when added amount is 100 times of usual dose)” value in data set [4] is listed as <50%, low toxicity.

As for `O=C1CC(C(=O)OCCC(F)=C(F)F)C(c2ccc(Cl)cc2)O1` (stereo not shown) [Compound 15], the LC50 in data set [1] (in vivo) is 11.88 µg/mL (≈ 34.1 µM); in data set [2] (in vivo) it was 12.69 µg/mL (≈ 36.4 µM). Moreover, the “Earthworm Toxicity LC50 (14 d)” value in data set [3] was >10, low toxicity mg/L. Also, the “Edaphon Toxicity (15 d) (Inhibition ratio when added amount is 100 times of usual dose)” value in data set [4] is listed as <50%, low toxicity.

For the compound `O=C1CC(C(=O)OCCC(F)=C(F)F)C(c2c(F)cccc2Cl)O1` (stereo not shown) [Compound 16], the median lethal concentration (LC50) in data set [1] (in vivo) was 10.91 µg/mL (≈ 29.8 µM); in data set [2] (in vivo), 12.25 µg/mL (≈ 33.4 µM). In addition, in data set [3], the “Earthworm Toxicity LC50 (14 d)” value is reported as >10, low toxicity mg/L. The “Edaphon Toxicity (15 d) (Inhibition ratio when added amount is 100 times of usual dose)” value in data set [4] is on record as <50%, low toxicity.

Take `O=C1CC(C(=O)OCCC(F)=C(F)F)C(c2cc(Br)cc(Br)c2)O1` (stereo not shown) [Compound 18]: the LC50 in data set [1] (in vivo) is 10.23 µg/mL (≈ 21.7 µM); in data set [2] (in vivo), 12.47 µg/mL (≈ 26.4 µM). Further, the “Earthworm Toxicity LC50 (14 d)” value in data set [3] was >10, low toxicity mg/L. In data set [4], the “Edaphon Toxicity (15 d) (Inhibition ratio when added amount is 100 times of usual dose)” value is listed as <50%, low toxicity.

Regarding `O=C1CC(C(=O)OCCC(F)=C(F)F)C(c2ccccc2F)O1` (stereo not shown) [Compound 19], the LC50 in data set [1] (in vivo) worked out at 15.21 µg/mL (≈ 45.8 µM); in data set [2] (in vivo), 17.24 µg/mL (≈ 51.9 µM). Moreover, the “Earthworm Toxicity LC50 (14 d)” value in data set [3] is reported as >10, low toxicity mg/L. In data set [4], the “Edaphon Toxicity (15 d) (Inhibition ratio when added amount is 100 times of usual dose)” value is given as <50%, low toxicity.

As to `O=C1CC(C(=O)OCCC(F)=C(F)F)C(c2ccc(F)cc2)O1` (stereo not shown) [Compound 20], the figures for the LC50 in data set [1] (in vivo) and in data set [2] (in vivo) were 10.143 µg/mL (≈ 30.5 µM) and 12.532 µg/mL (≈ 37.7 µM), respectively. Besides, the “Earthworm Toxicity LC50 (14 d)” value in data set [3] is given as >10, low toxicity mg/L. Further, in data set [4], the “Edaphon Toxicity (15 d) (Inhibition ratio when added amount is 100 times of usual dose)” value is listed as <50%, low toxicity.

Consider `O=C1CC(C(=O)OCCC(F)=C(F)F)C(c2ccc(Cl)cc2F)O1` (stereo not shown) [Compound 21], for which the 50% lethal concentration (LC50) in data set [1] (in vivo) turned out to be 11.98 µg/mL (≈ 32.7 µM); in data set [2] (in vivo), 13.74 µg/mL (≈ 37.5 µM). Also, in data set [3], the “Earthworm Toxicity LC50 (14 d)” value is reported as >10, low toxicity mg/L. For the same compound, the “Edaphon Toxicity (15 d) (Inhibition ratio when added amount is 100 times of usual dose)” value in data set [4] was <50%, low toxicity.

As for `O=C1CC(C(=O)OCCC(F)=C(F)F)C(c2cc(F)cc(Br)c2)O1` (stereo not shown) [Compound 22], the results for the LC50 in data set [1] (in vivo) and in data set [2] (in vivo) were 9.57 µg/mL (≈ 23.3 µM) and 10.85 µg/mL (≈ 26.4 µM), respectively. Also, in data set [3], the “Earthworm Toxicity LC50 (14 d)” value is >10, low toxicity mg/L. Besides, the “Edaphon Toxicity (15 d) (Inhibition ratio when added amount is 100 times of usual dose)” value in data set [4] is <50%, low toxicity.

`O=C1CC(C(=O)OCCC(F)=C(F)F)C(c2ccc(F)c(Cl)c2)O1` (stereo not shown) [Compound 23]: the LC50 in data set [1] (in vivo) came to 10.23 µg/mL (≈ 27.9 µM); in data set [2] (in vivo), 11.24 µg/mL (≈ 30.7 µM). Moreover, the “Earthworm Toxicity LC50 (14 d)” value in data set [3] is >10, low toxicity mg/L. Moreover, the “Edaphon Toxicity (15 d) (Inhibition ratio when added amount is 100 times of usual dose)” value in data set [4] is given as <50%, low toxicity.
